Laboratory results published in ChEMBL document CHEMBL6092192 (J Med Chem, 2024).
Activity calls are given as the source filed them. The rule behind the calls is not given here.

Tests used:
[1] = Toxicity in BALB/c nude mouse xenografted with […] CT26/TAXOL cells assessed as effect on lung at 100 mg/kg/day, IG in presence of paclitaxel/anti-PD-1 measured after 14 days by H and E staining based analysis; assay type: organism-based; details: in vivo, po, 336 h, time 14 day
HEK293 = assay: Cytotoxicity against HEK293 cells harbouring ABCB1 assessed as survival rate at 2 uM measured after 72 hrs by MTT assay relative to control; assay type: functional; details: Homo sapiens, read-out: Survival
KB 3-1 [2] = assay: Cytotoxicity against human KB 3-1 cells assessed as survival rate at 2 uM measured after 72 hrs by MTT assay relative to control; assay type: functional; details: read-out: Survival
[3] = Toxicity in BALB/c nude mouse assessed as effect on liver liver injury at 100 mg/kg/day, IG measured after 21 days in presence of paclitaxel by H and E staining based analysis; assay type: organism-based; details: in vivo, po, 504 h, time 21 day
[4] = Toxicity in BALB/c nude mouse xenografted with […] CT26/TAXOL cells assessed as effect on kidney at 100 mg/kg/day, IG in presence of paclitaxel measured after 14 days by H and E staining based analysis; assay type: organism-based; details: in vivo, po, 336 h, time 14 day
SW-620 = assay: Reversal of paclitaxel resistance in human SW620 cells assessed as reversal fold by measuring ratio of paclitaxel IC50 to paclitaxel IC50 in presence of test compound at 2 uM incubated for 72 hrs by MTT assay; assay type: functional
[5] = Toxicity in Sprague-Dawley rat assessed as maximum tolerated dose measured for 14 days administered as single oral dose; details: in vivo, time 14 day
KB 3-1 [6] = assay: Reversal of paclitaxel resistance in human KB 3-1 cells assessed as reversal fold by measuring ratio of paclitaxel IC50 to paclitaxel IC50 in presence of test compound at 2 uM incubated for 72 hrs by MTT assay; assay type: functional
[7] = Toxicity in BALB/c nude mouse xenografted with […] CT26/TAXOL cells assessed as mortality at 100 mg/kg/day, IG measured upto 14 days in presence of paclitaxel/anti-PD-1; assay type: organism-based; details: in vivo, po, 336 h, time < 14 day
[8] = Toxicity in BALB/c nude mouse xenografted with […] CT26/TAXOL cells assessed as change in body weight at 100 mg/kg/day, IG measured upto 14 days; assay type: organism-based; details: in vivo, po, 336 h, time < 14 day
CT26/TAXOL [9] = assay: Antitumor T-cell immune response in […] cells xenografted in BALB/c nude mouse model assessed as reduction in tumor weight at 100 mg/kg/day, IG in presence of anti-PD-1/paclitaxel measured after 14 days; assay type: functional, organism-based; details: time 14.0 day
[10] = Toxicity in Sprague-Dawley rat assessed as change in body weight at 250 to 1000 mg/kg, po measured for 14 days administered as single dose; assay type: organism-based; details: in vivo, 336 h, dose 250-1000 mg/kg, time 14 day
SW620/AD300 [11] = assay: Reversal of paclitaxel resistance in human SW620/AD300 cells assessed as reversal fold by measuring ratio of paclitaxel IC50 to paclitaxel IC50 in presence of test compound incubated for 72 hrs by MTT assay; assay type: functional
SW620/AD300 [12] = assay: Cytotoxicity against multidrug resistant human SW620/AD300 cells assessed as survival rate at 2 uM measured after 72 hrs by MTT assay relative to control; assay type: functional; details: read-out: Survival
CT26/TAXOL [13] = assay: Antitumor T-cell immune response in […] cells xenografted in BALB/c nude mouse model assessed as reduction in tumor volume at 100 mg/kg/day, IG in presence of anti-PD-1/paclitaxel measured after 14 days; assay type: functional, organism-based; details: time 14.0 day
CD8-positive T cell = assay: Activation of immune response in human CD8-positive T cell assessed as increase in IFN-gamma level at 4 uM by ELISA method; assay type: functional, cell-based
SW620/AD300 [14] = assay: Antitumor activity against human SW620/AD300 cells xenografted in male BALB/c nude mouse model assessed as nuclear pyknosis at 100 mg/kg/day, IG in presence of paclitaxel by H and E staining based analysis; assay type: functional, organism-based
KB 3-1 [15] = assay: Cytotoxicity against human KB 3-1 cells assessed as survival rate at 5 uM measured after 72 hrs by MTT assay relative to control; assay type: functional; details: read-out: Survival
[16] = molecular target: Voltage-gated inwardly rectifying potassium channel KCNH2 (Homo sapiens, UniProt Q12809); assay: Inhibition of human ERG expressed in CHO cells by QPatch assay; assay type: toxicity, cell-based
Sequence of Voltage-gated inwardly rectifying potassium channel KCNH2 (Q12809 whole entry): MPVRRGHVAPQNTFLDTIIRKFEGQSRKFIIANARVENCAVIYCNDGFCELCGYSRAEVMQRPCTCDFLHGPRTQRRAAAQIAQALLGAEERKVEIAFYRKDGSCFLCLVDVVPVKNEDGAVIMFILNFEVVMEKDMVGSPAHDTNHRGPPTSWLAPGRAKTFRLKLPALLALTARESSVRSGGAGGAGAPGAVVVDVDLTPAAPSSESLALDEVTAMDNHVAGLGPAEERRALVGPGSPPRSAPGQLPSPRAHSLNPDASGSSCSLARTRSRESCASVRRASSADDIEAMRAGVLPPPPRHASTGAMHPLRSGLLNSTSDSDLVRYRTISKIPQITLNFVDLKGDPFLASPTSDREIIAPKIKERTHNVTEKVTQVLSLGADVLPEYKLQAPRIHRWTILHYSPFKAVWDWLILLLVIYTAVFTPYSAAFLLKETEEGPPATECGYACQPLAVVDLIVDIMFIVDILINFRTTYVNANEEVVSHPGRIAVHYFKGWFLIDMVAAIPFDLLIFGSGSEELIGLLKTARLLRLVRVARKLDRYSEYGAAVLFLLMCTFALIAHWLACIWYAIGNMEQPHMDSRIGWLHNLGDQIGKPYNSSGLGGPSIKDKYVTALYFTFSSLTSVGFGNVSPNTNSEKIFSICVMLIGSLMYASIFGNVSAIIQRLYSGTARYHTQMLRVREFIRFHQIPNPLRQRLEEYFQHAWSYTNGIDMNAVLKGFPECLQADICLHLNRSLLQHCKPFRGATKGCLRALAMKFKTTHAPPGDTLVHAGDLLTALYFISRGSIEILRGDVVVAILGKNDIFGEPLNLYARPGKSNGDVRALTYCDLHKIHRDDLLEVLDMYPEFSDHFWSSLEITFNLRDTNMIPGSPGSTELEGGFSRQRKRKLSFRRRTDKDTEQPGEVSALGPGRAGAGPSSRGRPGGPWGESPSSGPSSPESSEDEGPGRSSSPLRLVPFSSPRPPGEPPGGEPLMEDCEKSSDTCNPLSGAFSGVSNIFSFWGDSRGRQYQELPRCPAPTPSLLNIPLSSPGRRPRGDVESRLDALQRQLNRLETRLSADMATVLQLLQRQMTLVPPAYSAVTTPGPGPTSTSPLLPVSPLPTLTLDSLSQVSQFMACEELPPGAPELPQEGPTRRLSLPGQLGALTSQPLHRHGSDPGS

[17] = Toxicity in BALB/c nude mouse xenografted with […] CT26/TAXOL cells assessed as effect on liver at 100 mg/kg/day, IG in presence of paclitaxel measured after 14 days by H and E staining based analysis; assay type: organism-based; details: in vivo, po, 336 h, time 14 day
Cytochrome P450 3A4 = Cytochrome P450 3A4 (Homo sapiens, UniProt P08684); assay: Activation of recombinant CYP3A4 in human liver microsomes at 30 uM measured upto 40 mins in presence of NADPH generating system by fluorescence based analysis; assay type: ADME, Microsome
Sequence of Cytochrome P450 3A4 (P08684 whole entry): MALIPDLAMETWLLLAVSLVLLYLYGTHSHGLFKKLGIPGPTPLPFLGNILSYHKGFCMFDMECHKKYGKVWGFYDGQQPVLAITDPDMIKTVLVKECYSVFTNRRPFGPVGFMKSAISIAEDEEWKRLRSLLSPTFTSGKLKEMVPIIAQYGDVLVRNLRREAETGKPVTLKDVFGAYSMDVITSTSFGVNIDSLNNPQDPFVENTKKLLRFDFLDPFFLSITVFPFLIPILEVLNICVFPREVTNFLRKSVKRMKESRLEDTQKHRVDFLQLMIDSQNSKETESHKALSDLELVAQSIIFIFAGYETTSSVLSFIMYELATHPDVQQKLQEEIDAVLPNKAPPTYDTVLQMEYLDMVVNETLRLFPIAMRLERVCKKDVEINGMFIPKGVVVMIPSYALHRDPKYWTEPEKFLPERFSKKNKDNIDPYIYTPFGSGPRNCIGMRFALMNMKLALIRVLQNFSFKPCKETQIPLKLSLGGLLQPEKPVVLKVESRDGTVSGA

[18] = Toxicity in BALB/c nude mouse xenografted with […] CT26/TAXOL cells assessed as effect on spleen at 100 mg/kg/day, IG in presence of paclitaxel/anti-PD-1 measured after 14 days by H and E staining based analysis; assay type: organism-based; details: in vivo, po, 336 h, time 14 day
[19] = Toxicity in BALB/c nude mouse xenografted with […] CT26/TAXOL cells assessed as mortality at 100 mg/kg/day, IG measured upto 14 days; assay type: organism-based; details: in vivo, po, 336 h, time < 14 day
[20] = Toxicity in BALB/c nude mouse xenografted with […] CT26/TAXOL cells assessed as effect on liver at 100 mg/kg/day, IG measured after 14 days by H and E staining based analysis; assay type: organism-based; details: in vivo, po, 336 h, time 14 day
[21] = Reversal of paclitaxel resistance in HEK293 cells transfected with pcDNA3.1 assessed as reversal fold by measuring ratio of paclitaxel IC50 to paclitaxel IC50 in presence of test compound at 4 uM incubated for 72 hrs by MTT assay; assay type: functional, Homo sapiens
[22] = MRT (0 to infinity) in 12 hrs fasted Sprague-Dawley rat at 10 mg/kg, po measured upto 720 mins by HPLC-MS/MS analysis; assay type: ADME, organism-based; details: in vivo
[23] = MRT (0 to t) in 12 hrs fasted Sprague-Dawley rat at 1 mg/kg, iv measured upto 720 mins by HPLC-MS/MS analysis; assay type: ADME, organism-based; details: in vivo
hERG (KCNH2) = hERG (KCNH2) (Homo sapiens, UniProt Q12809); assay: Inhibition of human ERG expressed in CHO cells at 40 uM by QPatch assay relative to control; assay type: toxicity, cell-based; details: CHO cells expressing human ERG
Sequence of hERG (KCNH2) (Q12809 whole entry): as the sequence (Q12809 whole entry) above

[24] = Half life in 12 hrs fasted Sprague-Dawley rat at 10 mg/kg, po measured upto 720 mins by HPLC-MS/MS analysis; assay type: ADME, organism-based; details: in vivo
SW620/AD300 [25] = assay: Reversal of paclitaxel resistance in human SW620/AD300 cells assessed as reversal fold by measuring ratio of paclitaxel IC50 to paclitaxel IC50 in presence of test compound at 2 uM incubated for 72 hrs by MTT assay; assay type: functional
[26] = Cmax in 12 hrs fasted Sprague-Dawley rat at 1 mg/kg, iv measured upto 720 mins by HPLC-MS/MS analysis; assay type: ADME, organism-based; details: in vivo
[27] = Reversal of paclitaxel resistance in HEK293 cells harbouring ABCB1 assessed as reversal fold by measuring ratio of paclitaxel IC50 to paclitaxel IC50 in presence of test compound at 2 uM incubated for 72 hrs by MTT assay; assay type: functional, Homo sapiens

O=c1c2c([nH]c3nc(SCc4nc5ccccc5s4)nn13)CCC2
Activity [1]: Non-toxic
viability at 2 µM (HEK293): 98.2%
viability at 2 µM (KB 3-1 [2]): 99.6%
Activity [3]: Non-toxic
Activity [4]: Non-toxic
Ratio IC50 (SW-620): 1.01
MTD at 336 h [5]: 1000 mg/kg
Ratio IC50 (KB 3-1 [6]): 1.05
Activity [7]: Non-toxic
Activity [8]: Non-toxic
Activity (CT26/TAXOL [9]): Active
Activity [10]: Non-toxic
Ratio IC50 (SW620/AD300 [11]): 864
viability at 2 µM (SW620/AD300 [12]): 98.5%
Activity (CT26/TAXOL [13]): Active
Activity (CD8-positive T cell): Active
Activity (SW620/AD300 [14]): Active
viability at 5 µM (KB 3-1 [15]): 95.9%
IC50 [16]: > 50 µM
Activity [17]: Non-toxic
Activity (Cytochrome P450 3A4): Active
Activity [18]: Non-toxic
Activity [19]: Non-toxic
Activity [20]: Non-toxic
Ratio IC50 [21]: 1.16
MRT inf [22]: 7.24 h
MRT last at 12 h [23]: 4.42 h
inhibition at 40 µM (hERG (KCNH2)): 32%
half-life [24]: 4.07 h
Ratio IC50 (SW620/AD300 [25]): 168.91
Cmax [26]: 0.38 µg/mL
Ratio IC50 [27]: 7.82
